Patent publication US20180296456A1, “Decapeptide-12 Modulation of Sirtuin Gene Expression in Epidermal Keratinocyte Progenitors” (Escape Therapeutics, Inc., priority 2017, published 2018)
Peptide text beside a SMILES is read from it.

Assays:
SIRT3 = SIRT3 transcription, semi-quantitative RT-PCR in human epidermal progenitors; format: cell-based; conditions: 72 h
Method: (§1) Human neonatal epidermal progenitors (Thermo Fisher Scientific, NY) were seeded in 6-well plates at a density of 2×10^5 cells/well. Each well received 2 ml of Epilife media containing 60 μM calcium chloride (Thermo Fisher Scientific, NY). Plates were incubated in a humidified chamber at 37 degrees Celsius and 5 percent CO2. Twenty-four hours later, cells were treated with various concentrations of oxyresveratrol or decapeptide-12 dissolved in PBS containing 5 percent DMSO. Control wells received vehicle only (5 percent DMSO and PBS). Final concentration of DMSO in each well was 0.05 percent.
(§2) After a 72 hour incubation period, cells were trypsinized and total RNA extracted, using RNeasy kit (Qiagen, Valencia, Calif.) according to the manufacturer's protocol.
(§3) RNA concentration was determined using nanodrop (Thermo fisher scientific, NY). Two μg of total RNA were used to synthesize cDNA using oligo dT primers and TaqMan reverse transcription reagents (Thermo fisher scientific, NY). The reaction was carried out in DNA Engine Peltier Thermal Cycler (Bio-Rad, Hercules, Calif.). The annealing temperature was 25 degrees Celsius for 10 minutes, followed by first strand synthesis at 48 degrees Celsius for 1 hour, and heat inactivation at 95 degrees Celsius for 5 minutes.
(§4) The SIRT1-7 primers (table 1) were designed using Primer3. The semi-quantitative PCR reactions were performed on a DNA Engine Peltier Thermo Cycler (Bio-Rad, Hercules, Calif.). PCR was carried under the following conditions: denaturation at 94 degrees Celsius for 2 minutes and primer extension at 54 degrees Celsius for 30 seconds in 34 cycles for SIRT 1-7 and the housekeeping gene 18S.
(§5) Samples were run and resolved on a 1.5 percent agarose gel containing 0.5 μg/ml of ethidium bromide and imaged using the FluorChem HD2 Imaging System (Protein simple, San Jose, Calif.). Densitometry analysis was carried out using the AlphaEase FC software (Protein simple, San Jose, Calif.). Intensity ratios were calculated as the intensity value for each gene divided by the intensity value of the internal control gene 18S.
(§6) The effect of the decapeptides P4, P4A, P4B, and P4C upon the transcription levels of sirtuins 1-7 was evaluated. Table 4 summarizes transcription levels for all four decapeptides with the corresponding genes, at tested concentrations of: 10, 30, 50, 100, and 300 (all in μM).

SIRT5 = SIRT5 transcription, semi-quantitative RT-PCR in human epidermal progenitors; format: cell-based; conditions: 72 h
Method: as §1, §2, §3, §4, §5, §6

SIRT6 = SIRT6 transcription, semi-quantitative RT-PCR in human epidermal progenitors; format: cell-based; conditions: 72 h
Method: as §1, §2, §3, §4, §5, §6

SIRT7 = SIRT7 transcription, semi-quantitative RT-PCR in human epidermal progenitors; format: cell-based; conditions: 72 h
Method: as §1, §2, §3, §4, §5, §6

in vitro = format: cell-based; conditions: human, human epidermal progenitors
Method: Proliferation rates were determined using a TACS® MTT Cell Proliferation Kit (R&D systems, Minneapolis, Minn.). Cells were seeded at 2.5×10^4/well in 96-well plates in a humidified atmosphere with 5 percent CO2 at 37 degrees Celsius. Twenty-four hours later, decapeptide-12 or oxyresveratrol were added to the corresponding wells at varying concentrations (0, 3, 10, 30, 100, 300, and 1000 μM), and cultures were then incubated for 72 hours. The remainder of the procedure was performed following the manufacturer's protocol.
(§7) Proliferation rates for three human cell lines (epidermal progenitors, melanoblasts, and fibroblasts) were determined using a TACS® MTT Cell Proliferation Kit. Cells were seeded at 2.5×10^4/well in 96-well plates in a humidified atmosphere with 5 percent CO2 at 37 degrees Celsius. Twenty-four hours later, the decapeptides were added to the corresponding wells at varying concentrations and incubated for 72 hours. The remainder of the procedure was performed following the manufacturer's protocol.

[1] = MTT cell proliferation assay, melanoblasts; format: cell-based, human; conditions: human, MTT, 72 h, read-out: melanoblast proliferation rate after 72 hours
Method: as §7

[2] = Trypan blue cell viability, 7 days, epidermal progenitors; format: cell-based; conditions: human, relative to control, read-out: epidermal progenitor viability after 7 days
Method: (§8) The effect of each of the decapeptides upon cell viability was also tested. In particular, cells were incubated with the decapeptide at various concentrations and then counted for viability relative to the control (untreated cells) using trypan blue. Cytotoxicity was measured according to the following formula:
(§9) [1−(# of cells in control−# of live cells in test sample)/# of cells in control]×100 percent.

[3] = Trypan blue cell viability, 7 days, melanoblasts; format: cell-based; conditions: human, relative to control, read-out: melanoblast viability after 7 days
Method: as §8, §9

[4] = Trypan blue cell viability, 7 days, fibroblasts; format: cell-based; conditions: human, relative to control, read-out: fibroblast viability after 7 days
Method: as §8, §9

## CCCCCCCCCCCCCCCC(=O)N[C@@H](Cc1ccc(O)cc1)C(=O)N[C@@H](CCCNC(=N)N)C(=O)N[C@@H](CO)C(=O)N[C@@H](CCCNC(=N)N)C(=O)N[C@@H](CCCCN)C(=O)N[C@H](Cc1ccc(O)cc1)C(=O)N[C@@H](CO)C(=O)N[C@@H](CO)C(=O)N[C@@H](Cc1c[nH]c2ccccc12)C(=O)N[C@@H](Cc1ccc(O)cc1)C(N)=O [P4B, Palmitoyl-YRSRK[*Y]SSWY-amide] (HELM PEPTIDE1{[CCCCCCCCCCCCCCCC(=O)[*:2]].Y.R.S.R.K.[dY].S.S.W.Y.[am]}$$$$V2.0)
SIRT3; 10 μM
  SIRT3 transcription increase relative to control: 22 ± 3%
SIRT3; 30 μM
  SIRT3 transcription increase relative to control: 23 ± 2%
SIRT3; 50 μM
  SIRT3 transcription increase relative to control: 28 ± 5%
SIRT3; 100 μM
  SIRT3 transcription increase relative to control: 78 ± 10%
SIRT3; 300 μM
  SIRT3 transcription increase relative to control: 142 ± 5%
SIRT5; 10 μM
  SIRT5 transcription increase relative to control: 2.00%
SIRT5; 30 μM
  SIRT5 transcription increase relative to control: 1.00%
SIRT5; 50 μM
  SIRT5 transcription increase relative to control: 1.00%
SIRT5; 100 μM
  SIRT5 transcription increase relative to control: 35 ± 3%
SIRT5; 300 μM
  SIRT5 transcription increase relative to control: 29 ± 5%
SIRT6; 10 μM
  SIRT6 transcription increase relative to control: 21 ± 5%
SIRT6; 30 μM
  SIRT6 transcription increase relative to control: 22 ± 4%
SIRT6; 50 μM
  SIRT6 transcription increase relative to control: 10 ± 4%
SIRT6; 100 μM
  SIRT6 transcription increase relative to control: 107 ± 2%
SIRT6; 300 μM
  SIRT6 transcription increase relative to control: 81 ± 4%
SIRT7; 10 μM
  SIRT7 transcription increase relative to control: 20 ± 6%
SIRT7; 30 μM
  SIRT7 transcription increase relative to control: 23 ± 5%
SIRT7; 50 μM
  SIRT7 transcription increase relative to control: 54 ± 7%
SIRT7; 100 μM
  SIRT7 transcription increase relative to control: 61 ± 7%
SIRT7; 300 μM
  SIRT7 transcription increase relative to control: 103 ± 8%
In vitro
  viability at 72 h, 3 µM: 99 ± 1%
  viability at 72 h, 10 µM: 99 ± 1%
  viability at 72 h, 30 µM: 98 ± 1%
  viability at 72 h, 50 µM: 98 ± 1%
  viability at 72 h, 100 µM: 97 ± 1%
  viability at 72 h, 300 µM: 97 ± 1%
  viability at 72 h, 500 µM: 95 ± 2%
  viability at 72 h, 1000 µM: 94 ± 2%
[1]
  viability at 72 h, 3 µM: 100%
  viability at 72 h, 10 µM: 100%
  viability at 72 h, 30 µM: 99 ± 1%
  viability at 72 h, 50 µM: 98 ± 1%
  viability at 72 h, 100 µM: 97 ± 2%
  viability at 72 h, 300 µM: 96 ± 2%
  viability at 72 h, 500 µM: 95 ± 2%
  viability at 72 h, 1000 µM: 94 ± 2%
[2]
  viability at 168 h, 3 µM: 100%
  viability at 168 h, 10 µM: 99 ± 1%
  viability at 168 h, 30 µM: 98.2 ± 1%
  viability at 168 h, 50 µM: 98 ± 1%
  viability at 168 h, 100 µM: 97 ± 1%
  viability at 168 h, 300 µM: 96.5 ± 2%
  viability at 168 h, 500 µM: 95.5 ± 2%
  viability at 168 h, 1000 µM: 94.5 ± 2%
[3]
  viability at 168 h, 3 µM: 100%
  viability at 168 h, 10 µM: 98.5 ± 1%
  viability at 168 h, 30 µM: 97.8 ± 3%
  viability at 168 h, 50 µM: 97.2 ± 2%
  viability at 168 h, 100 µM: 96.3 ± 2%
  viability at 168 h, 300 µM: 95.6 ± 2%
  viability at 168 h, 500 µM: 94.6 ± 2%
  viability at 168 h, 1000 µM: 93.8 ± 2%
[4]
  viability at 168 h, 3 µM: 100%
  viability at 168 h, 10 µM: 98.8 ± 1%
  viability at 168 h, 30 µM: 98.3 ± 1%
  viability at 168 h, 50 µM: 97.6 ± 1%
  viability at 168 h, 100 µM: 97.3 ± 2%
  viability at 168 h, 300 µM: 96.5 ± 2%
  viability at 168 h, 500 µM: 95.3 ± 3%
  viability at 168 h, 1000 µM: 94.2 ± 3%

## Ac-YRSRKYSSWY-NH2 [P4C, Acetyl-YRSRKYSSWY-amide]
SIRT3; 10 μM
  SIRT3 transcription increase relative to control: 8 ± 3%
SIRT3; 30 μM
  SIRT3 transcription increase relative to control: 6 ± 2%
SIRT3; 50 μM
  SIRT3 transcription increase relative to control: 45 ± 9%
SIRT3; 100 μM
  SIRT3 transcription increase relative to control: 82 ± 8%
SIRT3; 300 μM
  SIRT3 transcription increase relative to control: 159 ± 6%
SIRT5; 10 μM
  SIRT5 transcription increase relative to control: 4 ± 1%
SIRT5; 30 μM
  SIRT5 transcription increase relative to control: 2 ± 1%
SIRT5; 50 μM
  SIRT5 transcription increase relative to control: 3 ± 1%
SIRT5; 100 μM
  SIRT5 transcription increase relative to control: 35 ± 2%
SIRT5; 300 μM
  SIRT5 transcription increase relative to control: 28 ± 9%
SIRT6; 10 μM
  SIRT6 transcription increase relative to control: 12 ± 3%
SIRT6; 30 μM
  SIRT6 transcription increase relative to control: 9 ± 4%
SIRT6; 50 μM
  SIRT6 transcription increase relative to control: 31 ± 5%
SIRT6; 100 μM
  SIRT6 transcription increase relative to control: 124 ± 7%
SIRT6; 300 μM
  SIRT6 transcription increase relative to control: 87 ± 3%
SIRT7; 10 μM
  SIRT7 transcription increase relative to control: 14 ± 5%
SIRT7; 30 μM
  SIRT7 transcription increase relative to control: 7 ± 2%
SIRT7; 50 μM
  SIRT7 transcription increase relative to control: 46 ± 5%
SIRT7; 100 μM
  SIRT7 transcription increase relative to control: 80 ± 11%
SIRT7; 300 μM
  SIRT7 transcription increase relative to control: 130 ± 9%
In vitro
  viability at 72 h, 3 µM: 99 ± 1%
  viability at 72 h, 10 µM: 99 ± 1%
  viability at 72 h, 30 µM: 98 ± 1%
  viability at 72 h, 50 µM: 98 ± 1%
  viability at 72 h, 100 µM: 97 ± 1%
  viability at 72 h, 300 µM: 97 ± 1%
  viability at 72 h, 500 µM: 96 ± 2%
  viability at 72 h, 1000 µM: 96 ± 2%
[1]
  viability at 72 h, 3 µM: 100%
  viability at 72 h, 10 µM: 100%
  viability at 72 h, 30 µM: 99 ± 1%
  viability at 72 h, 50 µM: 98 ± 1%
  viability at 72 h, 100 µM: 97 ± 2%
  viability at 72 h, 300 µM: 96 ± 3%
  viability at 72 h, 500 µM: 95 ± 2%
  viability at 72 h, 1000 µM: 95 ± 2%
[2]
  viability at 168 h, 3 µM: 100%
  viability at 168 h, 10 µM: 99 ± 1%
  viability at 168 h, 30 µM: 98 ± 1%
  viability at 168 h, 50 µM: 97.4 ± 1%
  viability at 168 h, 100 µM: 96.6 ± 2%
  viability at 168 h, 300 µM: 95.7 ± 3%
  viability at 168 h, 500 µM: 94.8 ± 3%
  viability at 168 h, 1000 µM: 94 ± 3%
[3]
  viability at 168 h, 3 µM: 100%
  viability at 168 h, 10 µM: 99 ± 1%
  viability at 168 h, 30 µM: 98.4 ± 1%
  viability at 168 h, 50 µM: 97.9 ± 1%
  viability at 168 h, 100 µM: 97 ± 2%
  viability at 168 h, 300 µM: 96 ± 3%
  viability at 168 h, 500 µM: 95.5 ± 3%
  viability at 168 h, 1000 µM: 94.8 ± 3%
[4]
  viability at 168 h, 3 µM: 100%
  viability at 168 h, 10 µM: 98.9 ± 1%
  viability at 168 h, 30 µM: 98.3 ± 1%
  viability at 168 h, 50 µM: 97.8 ± 1%
  viability at 168 h, 100 µM: 97.4 ± 2%
  viability at 168 h, 300 µM: 96.5 ± 2%
  viability at 168 h, 500 µM: 95.7 ± 2%
  viability at 168 h, 1000 µM: 94.9 ± 3%
